This note sets out measurements from ChEMBL document CHEMBL3352586, “Pyridyl benzamides as a novel class of potent inhibitors for the kinetoplastid Trypanosoma brucei” (J Med Chem, 2014).

As usually defined, the inhibition is the percentage by which the read-out fell short of the control. Read a low inhibition as a weak effect.

A value given as a limit tells only on which side of the number the result lay.

In the test the test system is Trypanosoma brucei brucei. Nature of the test: Antimicrobial activity against bloodstream form of Trypanosoma brucei brucei 427 at 10 uM after 48 hrs by alamar blue assay. In kind it is functional. The following applies: Trypanosoma brucei, 427, 48 h. A general note: The colour change of resazurin is a common sign of viable cells or microbes.
For `Cc1ccccc1C(=O)Nc1ccccc1`, the inhibition at 10 µM was < 10%.

Turning to `Cc1cc(NC(=O)c2ccccc2C)no1`, the inhibition at 10 µM was < 10%. Regarding `Cc1ccccc1NC(=O)c1ccccn1`, the inhibition at 10 µM is < 10%. To `Cc1ccccc1C(=O)Nc1ccc(Cl)cn1` belongs < 10%; to `Cc1ccccc1C(=O)Nc1nncs1`, < 10%; to `Cc1ccccc1C(=O)Nc1ccc(Br)cn1`, < 10%. Consider `Cc1ccccc1C(=O)Nc1ccc(Br)c(C)n1`, for which the inhibition at 10 µM is < 10%.

As for `Cc1ccccc1C(=O)Nc1nc[nH]n1`, the inhibition at 10 µM is < 10%. For the compound `O=C(Nc1ccccn1)c1ccccc1-c1ccccc1`, the inhibition at 10 µM was < 10%. In the case of `Cc1ccccc1C(=O)Nc1cccnn1`, the inhibition at 10 µM was < 10%. Regarding `O=C(Nc1ccccn1)c1ccccc1C(F)(F)F`, the inhibition at 10 µM is < 10%. Under `COc1cccnc1NC(=O)c1ccccc1C` stands < 10%. The compound `Cc1ccccc1C(=O)Nc1ncccc1C` returned an inhibition at 10 µM of 34%.

In the case of `Cc1ccccc1C(=O)Nc1ncccc1F`, the inhibition at 10 µM was < 10%. To `Cc1ccccc1C(=O)Nc1cnccn1` belongs 35%; to `Cc1ccc(NC(=O)c2ccccc2C)nc1`, < 10%; to `Cc1ccccc1C(=O)Nc1ccncn1`, < 10%. Consider `COc1cccc(NC(=O)c2ccccc2C)n1`, for which the inhibition at 10 µM was < 10%. Consider `Cc1cccc(NC(=O)c2ccccc2C)n1`, for which the inhibition at 10 µM is < 10%.

`Cc1ccccc1C(=O)Nc1cccc(C#N)n1` came in with an inhibition at 10 µM of 11%. Turning to `Cc1ccccc1C(=O)Nc1cccc(Cl)n1`, the inhibition at 10 µM is < 10%.

Take `Cc1ccccc1C(=O)Nc1cccc(Br)n1`: the inhibition at 10 µM is < 10%. Compound `Cc1ccccc1C(=O)Nc1cccc(-c2ccccc2)n1` returned an inhibition at 10 µM of 33%.

As for `Cc1ccccc1C(=O)Nc1cccc(C#CCC(C)C)n1`, the inhibition at 10 µM was < 10%. As for `Cc1ccccc1C(=O)Nc1cccc(C#Cc2ccccc2)n1`, the inhibition at 10 µM is < 10%.

For `Cc1ccccc1C(=O)Nc1cccc(O)n1`, the inhibition at 10 µM is < 10%.

In the case of `Cc1ccccc1C(=O)Nc1ccccc1C#N`, the inhibition at 10 µM is < 10%. As for `Cc1ccccc1C(=O)Nc1ccon1`, the inhibition at 10 µM is < 10%.

As to `Cc1ccccc1C(=O)Nc1ncco1`, the inhibition at 10 µM is < 10%.

Regarding `Cc1ccccc1C(=O)Nc1cc[nH]n1`, the inhibition at 10 µM is < 10%. In the case of `Cc1ccccc1C(=O)Nc1ncns1`, the inhibition at 10 µM was < 10%. For `Cc1ccccc1C(=O)Nc1ccsc1`, the inhibition at 10 µM is < 10%. To `Cc1ccccc1C(=O)N(C)c1ccccn1` belongs 18%; to `O=C(Nc1ccccn1)c1ccccc1F`, 35%; to `O=C(Nc1ccccn1)c1ccccc1Cl`, 44%. Compound `O=C(Nc1ccccn1)c1ccccc1OC(F)(F)F` had an inhibition at 10 µM of 13%. Under `CCC/C=C/c1ccc(C(=O)Nc2ccccn2)c(C)c1` stands 24%; under `Cc1cc(-c2ccccc2)ccc1C(=O)Nc1ccccn1`, < 10%. Under `Cc1ccc(F)cc1C(=O)Nc1ccccn1` stands < 10%; under `Cc1ccc(Br)cc1C(=O)Nc1ccccn1`, < 10%; under `Cc1ccc(C)c(C(=O)Nc2ccccn2)c1`, 22%.

Regarding `COc1ccc(C)c(C(=O)Nc2ccccn2)c1`, the inhibition at 10 µM was < 10%.

Consider `Cc1ccncc1C(=O)Nc1ccccn1`, for which the inhibition at 10 µM was < 10%. For `Cc1cccc(C)c1C(=O)Nc1ccccn1`, the inhibition at 10 µM was < 10%. In turn, `Cc1cccc(F)c1C(=O)Nc1ccccn1` returned an inhibition at 10 µM of 45%. `Cc1cccnc1C(=O)Nc1ccccn1` displayed an inhibition at 10 µM of 12%.

Consider `O=C(Nc1ccc2ccccc2n1)c1ccccc1-c1ccccc1`, for which testing at 10 µM gave an inhibition of 53%. In the case of `Cc1ccc(NC(=O)c2cc(S(=O)(=O)NC(C)(C)C)ccc2C)nc1`, the inhibition at 10 µM worked out at 12%.
